The text below walks through data of US20130217664A1, “NOVEL COMPOUNDS USEFUL FOR THE TREATMENT OF DEGENERATIVE AND INFLAMMATORY DISEASES” (priority 2012, published 2013).

In one assay the target is T1, human TYK2 (Homo sapiens, UniProt P29597).
T1 construct: catalytic domain (amino acids 871-1187; catalog number 08-147); purchased Carna Biosciences 08-147
T1 sequence (P29597 871-1187): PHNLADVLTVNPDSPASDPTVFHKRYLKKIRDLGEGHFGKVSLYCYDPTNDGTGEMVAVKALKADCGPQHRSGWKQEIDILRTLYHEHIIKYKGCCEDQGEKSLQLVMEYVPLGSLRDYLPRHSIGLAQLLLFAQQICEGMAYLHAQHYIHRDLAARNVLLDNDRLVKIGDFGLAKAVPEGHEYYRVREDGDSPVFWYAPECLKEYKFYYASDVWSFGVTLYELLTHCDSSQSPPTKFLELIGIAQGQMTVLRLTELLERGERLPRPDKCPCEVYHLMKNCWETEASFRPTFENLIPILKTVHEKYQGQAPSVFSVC
In words: TYK2 inhibition assay. In kind it is biochemical. Particulars: recombinant human TYK2 catalytic domain, polyGT substrate. The method in brief: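 Radiometric kinase reaction run 90 min at 30 °C, stopped with phosphoric acid, washed and scintillation-counted.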

For another assay, the system named is CTLL-2 cell line. In words: CTLL2 viability assay. In kind it is cell-based. Conditions: Mus musculus, IL-2 dependent CTLL2 viability, 24 h, ATP-lite. The source says:
The protocol describes the methods to analyse the activity of compounds on their ability to sustain the IL2-dependent viability of CTLL2.
Final DMSO concentration was 0.1%.

In another assay the target is T2, human JAK3 (Homo sapiens, UniProt P52333).
T2 construct: catalytic domain (amino acids 781-1124; catalog number PV3855); purchased Invitrogen PV3855
In words: JAK3 inhibition assay. In kind it is biochemical. Particulars: recombinant human JAK3 catalytic domain; polyGT substrate. The method, boiled down:
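Radiometric kinase assay: 0.5 ng JAK3 with 2.5 μg polyGT in Tris pH 7.5/MgCl2 buffer, 1 μM ATP plus 0.25 μCi 33P-γ-ATP, 1% DMSO, 45 min at 30 °C, stopped with phosphoric acid.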

The target in another assay is T3, human JAK2 (Homo sapiens, UniProt O60674).
T3 construct: catalytic domain (amino acids 808-1132; catalog number PV4210); GST; purchased Invitrogen PV4210
In words: JAK2 inhibition assay (polyGT substrate / Ulight-JAK1 peptide). In kind it is biochemical. Conditions: recombinant human JAK2 catalytic domain; polyGT or Ulight-JAK1 peptide assay. The method in brief:
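Radiometric: 0.025 mU JAK2 with 2.5 μg polyGT, 1 μM ATP plus ^33P-ATP in MOPS pH 7.5 buffer, 1% DMSO, 90 min at 30° C.; filter counting. Alternative TR-FRET format with Ulight-JAK1 peptide, 60 min at room temperature, Eu-anti-phosphotyrosine detection.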

Another assay concerns the target T4, human JAK1 (Homo sapiens, UniProt P23458).
T4 construct: catalytic domain, amino acids 866-1154; catalog number PV4774; purchased Invitrogen PV4774
In words: JAK1 inhibition assay (polyGT substrate / Ulight-JAK1 peptide). In kind it is biochemical. Conditions: recombinant human JAK1 catalytic domain; polyGT or Ulight-JAK1 peptide assay. The method, boiled down: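 Two formats. PolyGT radiometric: 45 min at 30 °C, stopped with phosphoric acid, counted as cpm. Ulight-JAK1 peptide: 60 min at room temperature, stopped with Eu-anti-phosphotyrosine/EDTA, read as RFU. Percent inhibition normalised to vehicle and 10 μM staurosporine.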

Another assay deals with BA/F3 cell line. Kind of assay: BA/F3 viability assay. Particulars: Mus musculus, BaF3, 48 h, read-out: BA/F3 IC50.

T2 sequence (P52333 781-1124): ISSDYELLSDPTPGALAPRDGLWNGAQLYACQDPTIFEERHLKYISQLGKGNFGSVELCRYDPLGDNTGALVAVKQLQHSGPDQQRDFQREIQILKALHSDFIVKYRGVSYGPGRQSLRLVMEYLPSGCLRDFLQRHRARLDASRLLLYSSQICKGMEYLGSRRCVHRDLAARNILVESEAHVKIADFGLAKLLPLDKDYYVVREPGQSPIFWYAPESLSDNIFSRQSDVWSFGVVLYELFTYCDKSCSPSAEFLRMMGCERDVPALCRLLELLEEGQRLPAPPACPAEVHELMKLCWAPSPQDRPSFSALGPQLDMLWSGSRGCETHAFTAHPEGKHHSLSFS
T3 sequence (O60674 808-1132): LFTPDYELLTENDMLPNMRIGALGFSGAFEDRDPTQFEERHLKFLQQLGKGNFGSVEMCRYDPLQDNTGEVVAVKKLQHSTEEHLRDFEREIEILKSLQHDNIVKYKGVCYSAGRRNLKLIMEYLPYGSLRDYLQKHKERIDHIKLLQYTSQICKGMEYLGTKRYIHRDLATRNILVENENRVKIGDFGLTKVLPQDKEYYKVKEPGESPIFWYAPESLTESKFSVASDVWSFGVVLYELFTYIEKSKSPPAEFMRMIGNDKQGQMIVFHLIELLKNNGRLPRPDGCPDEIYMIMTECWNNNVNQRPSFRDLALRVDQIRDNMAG
T4 sequence (P23458 866-1154): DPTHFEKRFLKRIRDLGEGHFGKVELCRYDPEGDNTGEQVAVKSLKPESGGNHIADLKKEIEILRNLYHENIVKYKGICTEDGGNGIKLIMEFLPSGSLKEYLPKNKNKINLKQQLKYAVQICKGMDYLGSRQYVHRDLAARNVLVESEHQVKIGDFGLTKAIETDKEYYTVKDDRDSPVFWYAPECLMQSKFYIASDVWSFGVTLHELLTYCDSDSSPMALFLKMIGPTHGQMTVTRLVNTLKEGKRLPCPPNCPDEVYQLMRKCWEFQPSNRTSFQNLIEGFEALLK

Regarding `CCc1cc(C2(C#N)CC2)ccc1N(C)c1cc2c(cn1)ncn2C` [Compound 385, 1-{3-Ethyl-4-[methyl-(1-methyl-1H-imidazo[4,5-c]pyridin-6-yl)-amino]-phenyl}-cyclopropanecarbonitrile], the IC50 at human TYK2 was 0.01 to 100 nM; with CTLL-2 cell line, greater than 1000 nM; at human JAK3, 0.01 to 100 nM; at human JAK2, 0.01 to 100 nM; at human JAK1, 0.01 to 100 nM; with BA/F3 cell line it was 1000 to 5000 nM.

Regarding `CCc1cc(C2CN(CC(F)(F)F)C2)ncc1N(C)c1cc2c(cn1)ncn2C` [Compound 342, {4-Ethyl-6-[1-(2,2,2-trifluoro-ethyl)-azetidin-3-yl]-pyridin-3-yl}-methyl-(1-methyl-1H-imidazo[4,5-c]pyridin-6-yl)-amine], the IC50 at human TYK2 was greater than 1000 nM; with CTLL-2 cell line, greater than 1000 nM; on human JAK3, greater than 1000 nM; on human JAK2 it was greater than 1000 nM; on human JAK1, 101 to 500 nM; in the assay on BA/F3 cell line, greater than 5000 nM.

Regarding `CN(c1cc2c(cn1)ncn2C)c1c(F)cc(C2CN(S(C)(=O)=O)C2)cc1F` [Compound 409, [2,6-Difluoro-4-(1-methanesulfonyl-azetidin-3-yl)-phenyl]-methyl-(1-methyl-1H-imidazo[4,5-c]pyridin-6-yl)-amine], the IC50 at human TYK2 is greater than 1000 nM; in the assay on CTLL-2 cell line it was greater than 1000 nM; at human JAK3, 501 to 1000 nM; at human JAK2 it was 101 to 500 nM; on human JAK1, 0.01 to 100 nM; in the assay with BA/F3 cell line, greater than 5000 nM.

In the case of `CCc1cc(CNC(=O)C2CCC(F)(F)CC2)ccc1N(C)c1cc2c(cn1)ncn2C` [Compound 377, 4,4-Difluoro-cyclohexanecarboxylic acid 3-ethyl-4-[methyl-(1-methyl-1H-imidazo[4,5-c]pyridin-6-yl)-amino]-benzylamide], the IC50 on human TYK2 was greater than 1000 nM; in the assay on CTLL-2 cell line, greater than 1000 nM; on human JAK3, greater than 1000 nM; on human JAK2, greater than 1000 nM; on human JAK1, 0.01 to 100 nM; in the assay on BA/F3 cell line, greater than 5000 nM.

Take `CCc1cc(C(C#N)N2CCNC(=O)C2)ccc1N(C)c1cc2c(cn1)ncn2C` (stereo not drawn) [Compound 410, {3-Ethyl-4-[methyl-(1-methyl-1H-imidazo[4,5-c]pyridin-6-yl)-amino]-phenyl}-(3-oxo-piperazin-1-yl)-acetonitrile]: the IC50 was 0.01 to 100 nM on human TYK2; greater than 1000 nM in the assay with CTLL-2 cell line; 0.01 to 100 nM at human JAK3; 0.01 to 100 nM at human JAK2; 0.01 to 100 nM on human JAK1; greater than 5000 nM in the assay on BA/F3 cell line.

As for `CCc1cc(CNS(=O)(=O)NC)ccc1N(C)c1cc2c(cn1)ncn2C` [Compound 376, Methyl amino-N-{3-Ethyl-4-[methyl-(1-methyl-1H-imidazo[4,5-c]pyridin-6-yl)-amino]-benzyl}-sulfonamide], the IC50 was 101 to 500 nM on human TYK2; greater than 1000 nM in the assay with CTLL-2 cell line; 101 to 500 nM at human JAK3; 0.01 to 100 nM at human JAK2; 0.01 to 100 nM on human JAK1; 1000 to 5000 nM with BA/F3 cell line.

`CN(c1cc2c(cn1)ncn2C)c1ccc(CNS(C)(=O)=O)cc1OC(F)F` [Compound 429, N-{3-Difluoromethoxy-4-[methyl-(1-methyl-1H-imidazo[4,5-c]pyridin-6-yl)-amino]-benzyl}-methanesulfonamide]: the IC50 on human TYK2 is 101 to 500 nM; with CTLL-2 cell line it was greater than 1000 nM; on human JAK3, 0.01 to 100 nM; at human JAK2 it was 0.01 to 100 nM; at human JAK1, 0.01 to 100 nM; with BA/F3 cell line, greater than 5000 nM.

Turning to `CCc1cc(CN(CC#N)S(C)(=O)=O)ccc1N(C)c1cc2c(cn1)ncn2C` [Compound 388, N-Cyanomethyl-N-{3-ethyl-4-[methyl-(1-methyl-1H-imidazo[4,5-c]pyridin-6-yl)-amino]-benzyl}-methanesulfonamide], the IC50 on human TYK2 was 0.01 to 100 nM; in the assay with CTLL-2 cell line, greater than 1000 nM; at human JAK3 it was 0.01 to 100 nM; at human JAK2, 0.01 to 100 nM; on human JAK1, 0.01 to 100 nM; in the assay on BA/F3 cell line it was 1000 to 5000 nM.

With `CCc1cc(CNCC(F)F)ccc1N(C)c1cc2c(cn1)ncn2C` [Compound 379], the IC50 on human TYK2 is 101 to 500 nM; with CTLL-2 cell line, greater than 1000 nM; on human JAK3, 101 to 500 nM; at human JAK2, 101 to 500 nM; on human JAK1, 0.01 to 100 nM; in the assay with BA/F3 cell line, greater than 5000 nM.

As to `CCc1cc(N2CCC(F)(F)C2)ncc1N(C)c1cc2c(cn1)ncn2C` [Compound 411, [6-(3,3-Difluoro-pyrrolidin-1-yl)-4-ethyl-pyridin-3-yl]-methyl-(1-methyl-1H-imidazo[4,5-c]pyridin-6-yl)-amine], the IC50 at human TYK2 was 0.01 to 100 nM; in the assay on CTLL-2 cell line it was greater than 1000 nM; at human JAK3, 0.01 to 100 nM; at human JAK2, 0.01 to 100 nM; at human JAK1 it was 0.01 to 100 nM; in the assay on BA/F3 cell line it was 1000 to 5000 nM.

Regarding `CCc1cc(C2CN(CCC(F)(F)F)C2)ncc1N(C)c1cc2c(cn1)ncn2C` [Compound 341, {4-Ethyl-6-[1-(3,3,3-trifluoro-propyl)-azetidin-3-yl]-pyridin-3-yl}-methyl-(1-methyl-1H-imidazo[4,5-c]pyridin-6-yl)-amine], the IC50 was greater than 1000 nM on human TYK2; greater than 1000 nM in the assay on CTLL-2 cell line; greater than 1000 nM on human JAK3; greater than 1000 nM on human JAK2; 101 to 500 nM at human JAK1; greater than 5000 nM in the assay with BA/F3 cell line.

Regarding `CCc1cc(C2CN(S(=O)(=O)CC(F)(F)F)C2)ccc1N(C)c1cc2c(cn1)ncn2C` [Compound 352, {2-Ethyl-4-[1-(2,2,2-trifluoro-ethanesulfonyl)-azetidin-3-yl]-phenyl}-methyl-(1-methyl-1H-imidazo[4,5-c]pyridin-6-yl)-amine], the IC50 at human TYK2 was 0.01 to 100 nM; in the assay on CTLL-2 cell line, greater than 1000 nM; on human JAK3 it was 0.01 to 100 nM; at human JAK2 it was 0.01 to 100 nM; on human JAK1, 0.01 to 100 nM; with BA/F3 cell line, greater than 5000 nM.

For the compound `CCc1cc(C2CN(CC#N)C2)ccc1N(C)c1cc2c(cn1)ncn2C` [Compound 351, (3-{3-Ethyl-4-[methyl-(1-methyl-1H-imidazo[4,5-c]pyridin-6-yl)-amino]-phenyl}-azetidin-1-yl)-acetonitrile], the IC50 on human TYK2 is 101 to 500 nM; in the assay on CTLL-2 cell line it was greater than 1000 nM; on human JAK3, 101 to 500 nM; at human JAK2, 0.01 to 100 nM; at human JAK1 it was 0.01 to 100 nM; with BA/F3 cell line, greater than 5000 nM.

Regarding `CN(c1cc2c(cn1)ncn2C)c1ccc(C2CN(S(=O)(=O)C(F)F)C2)cc1OC(F)F` [Compound 370, {4-[1-(Difluoro-methanesulfonyl)-azetidin-3-yl]-2-difluoromethoxy-henyl}-methyl-(1-methyl-1H-imidazo[4,5-c]pyridin-6-yl)-amine], the IC50 on human TYK2 was 101 to 500 nM; in the assay with CTLL-2 cell line, greater than 1000 nM; on human JAK3 it was 0.01 to 100 nM; at human JAK2 it was 0.01 to 100 nM; on human JAK1, 0.01 to 100 nM; in the assay with BA/F3 cell line, 1000 to 5000 nM.

As for `CN(c1cc2c(cn1)ncn2C)c1c(F)cc(CNS(C)(=O)=O)cc1F` [Compound 404, N-{3,5-Difluoro-4[methyl-(1-methyl-1H-imidazo[4,5-c]pyridin-6-yl)-amino]-benzyl}-methanesulfonamide], the IC50 on human TYK2 is 101 to 500 nM; in the assay with CTLL-2 cell line, greater than 1000 nM; at human JAK3 it was 101 to 500 nM; on human JAK2 it was 0.01 to 100 nM; on human JAK1 it was 0.01 to 100 nM; in the assay on BA/F3 cell line, greater than 5000 nM.

As for `CCc1cc(C2CCN(S(C)(=O)=O)CC2)ncc1N(C)c1cc2c(cn1)ncn2C` [Compound 383, (4-Ethyl-1′-methanesulfonyl-1′,2′,3′,4′,5′,6′-hexahydro-[2,4′]bipyridinyl-5-yl)-methyl-(1-methyl-1H-imidazo[4,5-c]pyridin-6-yl)-amine], the IC50 is 501 to 1000 nM on human TYK2; greater than 1000 nM in the assay with CTLL-2 cell line; 501 to 1000 nM on human JAK3; 101 to 500 nM at human JAK2; 0.01 to 100 nM at human JAK1; 1000 to 5000 nM in the assay with BA/F3 cell line.
